Entries after “also recorded” stand apart in the source; their conditions may differ.
Key:
PPIA [1] = molecular target: T1, PPIA (Homo sapiens, UniProt P62937); assay: NMR titration of 15N-labeled PPIA with dipeptide repeat polymers (1H-15N HSQC); type: binding; conditions: for Arg55 csp / Arg55 I/I0 (titration, SI Fig 2b): 40 µM 15N-PPIA; for Arg55 csp / I/I0 of the HSQC cross-peak of PPIA residue 55 (SI Fig 2a) / Arg55 I/I0 (titration, SI Fig 2b): pH 7.4, 298 K; for I/I0 of the HSQC cross-peak of PPIA residue 55 (SI Fig 2a): eightfold excess of peptide (320 µM) over 40 µM 15N-PPIA; for binding to PPIA judged from NMR signals: eightfold excess of peptide over PPIA, 1H-15N HSQC
T1 construct: His-tag (cleaved yes); made in house; host or cells: Escherichia coli BL21(DE3)
T1 sequence (P62937 whole entry): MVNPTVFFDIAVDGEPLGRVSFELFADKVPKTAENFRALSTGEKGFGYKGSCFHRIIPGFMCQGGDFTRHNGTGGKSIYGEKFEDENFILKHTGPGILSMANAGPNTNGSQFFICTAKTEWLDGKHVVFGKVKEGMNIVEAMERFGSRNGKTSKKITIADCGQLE
Description: Titration of ^15N-labeled PPIA with dipeptide repeat polymers (PR20, GR20, GP20, AP20, PR10, PR5, and PR2) were carried out in 25 mM HEPES buffer with 100 mM NaCl, 2 mM DTT, 0.01% NaN3, and 10% D20 at pH 7.4. For 40 µM protein, the ligand concentrations were increased from 0 to 320 µM in five steps. For the PPIA/GP20 and PPIA/AP20 titrations, the concentration of the repeat polymer was further increased up to 3200 µM. Two-dimensional ^15N-^1H HSQC spectra[41] were acquired at 298 K for each PPIA/repeat polymer ratio.
Kd calculations for the interactions of PPIA with PR repeats (PR5, PR10, and PR20) were made from the dipeptide repeat polymer-induced variations in PPIA cross-peak intensities, using the equation for slow exchange regime interactions:1 1−I/I0=Imax(Kd+P+x)−Kd+P+x^2−4×P×x/2P where I is the intensity of PPIA peaks in the presence of increasing ligand concentrations, I0 is the intensity of free protein, P is the total concentration of protein, x is the concentration of ligand, and Kd is the dissociation constant.
The error in 1−(I/I0) is taken to be the error in the experimental quantity of I/I0 and has been calculated from the noise in HSQC spectra according to2 σI/I0=I/I0σI0/I0^2+σ(I)/I^2 where σ(I/Io) is the error in I/I0, σ(Io) and σ(I) are the noise (RMS value of background noise from various regions) in the HSQC spectrum of PPIA alone and that of PPIA in the presence of ligand, respectively.
In case of the PPIA/GP20- and PPIA/AP20 interactions, the Kd value was calculated from the equation for fast exchange interactions using chemical shift perturbations (CSP) according to3 CSP=CSPmax(Kd+P+x)−(Kd+P+x)^2−4×P×x/2P where4 CSP=(δH)^2+δN/6.5^2
Imax and CSPmax were treated as independent free fit parameters for the residues. The error value in the Kd is the standard error of fitting.

PPIA [2] = molecular target: T1, PPIA; assay: PPIA-catalysed refolding of urea-unfolded RNaseT1 (tryptophan fluorescence); type: biochemical
Description: (§1) RNaseT1 (purchased from Thermo Fischer) was unfolded by incubating in 6.9 M urea at 10 °C for 2 h in 100 mM Tris-HCl buffer at pH 8. Refolding of RNaseT1 was initiated by diluting it 35 times with same buffer such that the final concentration of RNaseT1 was 2.27 µM and urea 0.197 M. Tryptophan fluorescence emission was measured at 320 nm (excitation wavelength = 280 nm) during refolding for 1 h on a Cary Eclipse Fluorescence Spectrophotometer at 10 °C. In experiments with PR20, PPIA, or both, they were added to the dilution buffer and incubated at 10 °C for 2 h prior to mixing. Data were normalized and averaged for graphical representation. The exponential constants, k, for the increasing fluorescence intensities were obtained from fitting a mono-exponential function to the experimental data in Graph Pad Prism.

RNaseT1 = molecular target: T2, RNaseT1 (Aspergillus oryzae, UniProt P00651); assay: Refolding of RNaseT1 without PPIA (self-folding control with PR20); type: biochemical; conditions: for exponential folding rate constant k of RNaseT1, no PPIA: Rnase T1:PR20=1:175, no CypA, same conditions
T2 construct: purchased Thermo Fischer
T2 sequence (P00651 27-130): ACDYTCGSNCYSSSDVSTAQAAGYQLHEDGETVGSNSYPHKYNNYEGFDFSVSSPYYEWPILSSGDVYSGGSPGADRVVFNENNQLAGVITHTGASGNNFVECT
Description: as §1

PPIA [3] = conditions: read-out: binding affinity to the enzyme; cited from earlier work
prolyl isomerase PPIA [4] = molecular target: T3, prolyl isomerase PPIA (human, UniProt P62937 2-164); assay: ITC; 44 µM PPIA in the cell titrated with 650 µM PR20 in the syringe; 10 °C; 25 mM HEPES, 100 mM NaCl, 1 mM TCEP, pH 7.4; number of binding sites fixed to one; conditions: both partners purified
T3 construct: human PPIA (peptidyl-prolyl cis-trans isomerase A, cyclophilin A); gene cloned into a modified pET28a vector; 15N-labeled for the NMR titrations, unlabeled for ITC, crystallography and folding assays; source: E. coli BL21(DE3), purified (Ni-NTA, TEV cleavage, Superdex 75); 15N-labeled in M9 minimal media for NMR
T3 sequence (P62937 2-164): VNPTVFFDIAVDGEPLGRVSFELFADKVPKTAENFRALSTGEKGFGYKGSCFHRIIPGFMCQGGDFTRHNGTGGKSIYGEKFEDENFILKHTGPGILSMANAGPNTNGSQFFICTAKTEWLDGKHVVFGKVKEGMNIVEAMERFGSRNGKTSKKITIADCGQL

prolyl isomerase PPIA [5] = molecular target: T3, prolyl isomerase PPIA; assay: NMR titration; 40 µM 15N-labeled PPIA titrated with repeat polymer from 0 to 320 µM in five steps; 1H-15N HSQC at 298 K; 25 mM HEPES, 100 mM NaCl, 2 mM DTT, pH 7.4; Kd from the attenuation of the cross-peak of Arg55 (equation for slow exchange); conditions: both partners purified
prolyl isomerase PPIA [6] = molecular target: T3, prolyl isomerase PPIA; assay: NMR titration; 40 µM 15N-labeled PPIA titrated with GP20 or AP20 up to 3200 µM; 1H-15N HSQC at 298 K; 25 mM HEPES, 100 mM NaCl, 2 mM DTT, pH 7.4; Kd from chemical shift perturbations (equation for fast exchange); conditions: both partners purified

Ac-APAPAPAPAPAPAPAPAPAPAPAPAPAPAPAPAPAPAPAP-NH2 [AP20]
Arg55 csp (PPIA [1]; peptide conc. 32 uM): 0.009725
Arg55 csp (PPIA [1]; peptide conc. 160 uM): 0.03975
Arg55 csp (PPIA [1]; peptide conc. 320 uM): 0.06372
Arg55 csp (PPIA [1]; peptide conc. 640 uM): 0.09595
Arg55 csp (PPIA [1]; peptide conc. 1280 uM): 0.1279
Arg55 csp (PPIA [1]; peptide conc. 3200 uM): 0.1597

Ac-GPGPGPGPGPGPGPGPGPGPGPGPGPGPGPGPGPGPGPGP-NH2 [GP20]
Arg55 csp (PPIA [1]; peptide conc. 32 uM): 0.002383
Arg55 csp (PPIA [1]; peptide conc. 96 uM): 0.006761
Arg55 csp (PPIA [1]; peptide conc. 160 uM): 0.01147
Arg55 csp (PPIA [1]; peptide conc. 320 uM): 0.01968
Arg55 csp (PPIA [1]; peptide conc. 640 uM): 0.034
Arg55 csp (PPIA [1]; peptide conc. 1280 uM): 0.04768
Arg55 csp (PPIA [1]; peptide conc. 2560 uM): 0.06404
Arg55 csp (PPIA [1]; peptide conc. 3200 uM): 0.07024

Ac-PRPRPRPRPR-NH2 [PR5]
Kd (PPIA [1]): 48.5 µM
I/I0 of the HSQC cross-peak of PPIA residue 55 (SI Fig 2a) (PPIA [1]): 0.1037

Ac-PRPRPRPRPRPRPRPRPRPR-NH2 [PR10]
Kd (PPIA [1]): 27.1 µM
I/I0 of the HSQC cross-peak of PPIA residue 55 (SI Fig 2a) (PPIA [1]): 0.1506

Ac-PRPRPRPRPRPRPRPRPRPRPRPRPRPRPRPRPRPRPRPR-NH2 [PR20]
exponential folding rate constant k of RNaseT1 (PPIA [2]; Rnase T1:CypA:PR20=1:0.033:7, 2.27 µM RNaseT1, 100 mM Tris-HCl pH 8, 10 °C, fluorescence 320 nm, mono-exponential fit, independent experiment 1 of 3): 0.2834
exponential folding rate constant k of RNaseT1 (PPIA [2]; Rnase T1:CypA:PR20=1:0.033:7, same conditions, independent experiment 2 of 3): 0.2936
exponential folding rate constant k of RNaseT1 (PPIA [2]; Rnase T1:CypA:PR20=1:0.033:7, same conditions, independent experiment 3 of 3): 0.3078
exponential folding rate constant k of RNaseT1 (PPIA [2]; Rnase T1:CypA:PR20=1:0.033:20, 2.27 µM RNaseT1, pH 8, 10 °C, mono-exponential fit, independent experiment 1 of 3): 0.2235
exponential folding rate constant k of RNaseT1 (PPIA [2]; Rnase T1:CypA:PR20=1:0.033:20, same conditions, independent experiment 2 of 3): 0.3061
exponential folding rate constant k of RNaseT1 (PPIA [2]; Rnase T1:CypA:PR20=1:0.033:20, same conditions, independent experiment 3 of 3): 0.2847
exponential folding rate constant k of RNaseT1 (PPIA [2]; Rnase T1:CypA:PR20=1:0.033:46, 2.27 µM RNaseT1, pH 8, 10 °C, mono-exponential fit, independent experiment 1 of 3): 0.2129
exponential folding rate constant k of RNaseT1 (PPIA [2]; Rnase T1:CypA:PR20=1:0.033:46, same conditions, independent experiment 2 of 3): 0.2303
exponential folding rate constant k of RNaseT1 (PPIA [2]; Rnase T1:CypA:PR20=1:0.033:46, same conditions, independent experiment 3 of 3): 0.2811
exponential folding rate constant k of RNaseT1 (PPIA [2]; Rnase T1:CypA:PR20=1:0.033:175, 2.27 µM RNaseT1, pH 8, 10 °C, mono-exponential fit, independent experiment 1 of 3): 0.1927
exponential folding rate constant k of RNaseT1 (PPIA [2]; Rnase T1:CypA:PR20=1:0.033:175, same conditions, independent experiment 2 of 3): 0.1913
exponential folding rate constant k of RNaseT1 (PPIA [2]; Rnase T1:CypA:PR20=1:0.033:175, same conditions, independent experiment 3 of 3): 0.202
effect on the catalyzing effect of PPIA on RNaseT1 folding (PPIA [2]; increasing PR20: 7, 20, 46, 175 times excess over RNaseT1): inhibited the catalyzing effect of PPIA in a dose-dependent manner
exponential folding rate constant k of RNaseT1, no PPIA (RNaseT1; independent experiment 2 of 3): 0.1365
exponential folding rate constant k of RNaseT1, no PPIA (RNaseT1; independent experiment 3 of 3): 0.1365
refolding kinetics of RNaseT1 in the presence of PR20, no PPIA (RNaseT1; large excess of PR20, 10 °C, pH 8): unchanged
I/I0 of the HSQC cross-peak of PPIA residue 55 (SI Fig 2a) (PPIA [1]): -0.02438
Arg55 I/I0 (titration, SI Fig 2b) (PPIA [1]; ligand conc 9.6 uM): 0.211
Arg55 I/I0 (titration, SI Fig 2b) (PPIA [1]; ligand conc 32 uM): 0.472
Arg55 I/I0 (titration, SI Fig 2b) (PPIA [1]; ligand conc 96 uM): 0.746
Arg55 I/I0 (titration, SI Fig 2b) (PPIA [1]; ligand conc 160 uM): 0.931
Arg55 I/I0 (titration, SI Fig 2b) (PPIA [1]; ligand conc 320 uM): 1.02

GR20: 20-dipeptide glycine/arginine repeat polymer, acetylated and amidated termini
binding to PPIA judged from NMR signals (PPIA [1]): does not bind to PPIA
Arg55 I/I0 (titration, SI Fig 2b) (PPIA [1]; ligand conc 9.6 uM): 0.0912
Arg55 I/I0 (titration, SI Fig 2b) (PPIA [1]; ligand conc 32 uM): 0.0182
Arg55 I/I0 (titration, SI Fig 2b) (PPIA [1]; ligand conc 96 uM): -0.00762
Arg55 I/I0 (titration, SI Fig 2b) (PPIA [1]; ligand conc 160 uM): 0.124
Arg55 I/I0 (titration, SI Fig 2b) (PPIA [1]; ligand conc 320 uM): -0.0665

PR2: two PR dipeptides, the four-residue peptide, acetylated and amidated termini (Ac-PRPR-NH2)
I/I0 of the HSQC cross-peak of PPIA residue 55 (SI Fig 2a) (PPIA [1]): 0.9376
binding to PPIA judged from NMR signals (PPIA [1]): does not efficiently bind; also recorded: abrogated the binding to PPIA

cyclosporin A
Kd (PPIA [3]): 0.013 ± 0.004 µM

B1: PR repeat polymer with 20 repeats (PR20) (peptide)
peptide: Ac-PRPRPRPRPRPRPRPRPRPRPRPRPRPRPRPRPRPRPRPR-NH2
notes: dipeptide repeat polymer translated from the C9orf72 hexanucleotide repeat expansion; Only eight residues of the polymer could be built in the asymmetric unit of PDB 7ABT; also called 20-dipeptide polymer PR20; 20-repeat PR polymer; source: synthetic peptide (solid-phase peptide synthesis)
Kd (prolyl isomerase PPIA [4]): ~50 µM
Kd (prolyl isomerase PPIA [5]): 23 µM

B2: dipeptide repeat polymer AP20 (peptide)
peptide: Ac-APAPAPAPAPAPAPAPAPAPAPAPAPAPAPAPAPAPAPAP-NH2
notes: also called alanine/proline repeat polymer; source: synthetic peptide (solid-phase peptide synthesis)
Kd (prolyl isomerase PPIA [6]): 597 µM

B3: dipeptide repeat polymer GP20 (peptide)
peptide: Ac-GPGPGPGPGPGPGPGPGPGPGPGPGPGPGPGPGPGPGPGP-NH2
notes: also called glycine/proline repeat polymer; source: synthetic peptide (solid-phase peptide synthesis)
Kd (prolyl isomerase PPIA [6]): 1190 µM

B4: PR repeat polymer with ten PR dipeptides (PR10) (peptide)
peptide: Ac-PRPRPRPRPRPRPRPRPRPR-NH2
notes: source: synthetic peptide (solid-phase peptide synthesis)
Kd (prolyl isomerase PPIA [5]): 27 µM

B5: PR repeat polymer with five PR dipeptides (PR5) (peptide)
peptide: Ac-PRPRPRPRPR-NH2
notes: as for B4
Kd (prolyl isomerase PPIA [5]): 49 µM

From paper PMC8184751, “Proline/arginine dipeptide repeat polymers derail protein folding in amyotrophic lateral sclerosis” (Nature Communications, 2021)
